Results from US6903125B2, “Tetrahydro-2H-thiopyran-4-carboxamide derivative” (Yamanouchi Pharmaceutical Co., Ltd., priority 2003, dated 2005).
Like-named read-outs stand apart in the source and are kept apart here.

What was measured:
HSV-1 (strain KOS) = assay: Anti-HSV-1 activity assay (MTT, MRC-5 cells); format: cell-based; conditions: HSV-1 strain KOS in MRC-5 cells, 5 days culture, read-out: EC50 value (suppression of cellular death of MRC-5 cells via HSV-1 replication)
Experimental: 10,000 MRC-5 cells were inoculated and cultured in a 96-well microtiter plate, using the growth culture medium in 5% CO2 at 37° C. for 4 to 5 days until a monolayer was formed. After the cells were washed with the maintenance culture medium, 100 μl of the maintenance culture medium dissolving therein an appropriate concentration of a test reagent was added to each well. Immediately after the test drug was added, an HSV-1 (strain KOS) solution was inoculated at 50 TCID50 (50% tissue culture infectious dose)/100 μl. After the cells were cultured in 5% CO2 at 37° C. for 5 days, 20 μl of MTT solution [3-(4,5-dimethyl-2-thiazolyl)-2,5-diphenyl-2H-tetrazolium bromide; Sigma] (diluted with PBS to 7.5 mg/ml) was added to each well, for another 24-hour incubation. After the culture medium was discarded, 100 μl of a solvent (prepared by adding 10% (v/v) Triton X 100 and 0.4% hydrochloric acid to isopropanol) was added to each well, to solubilize the generated formazan. The absorbance at 540 nm or 690 nm was measured with a microplate reader. Based on the suppression ratio (%) of the cellular death of the MRC-5 cell via HSV-1 replication, the EC50 value of the test drug was calculated.

VZV (strain CaQu) = assay: Anti-VZV activity assay (plaque reduction in HEF cells); format: cell-based, varicella zoster virus
Experimental: This experiment was carried out based on the method described by Shigeta S., The Journal of Infectious Diseases, 147, 3, 576-584 (1983). Briefly, 10,000 human embryonic fibroblast (HEF) cells were inoculated in a 96-well microtiter plate, using a growth culture medium [Eagle MEM (Nissui) supplemented with 10% (v/v) fetal bovine serum (FBS; Sigma)], for culturing in 5% CO2 at 37° C. for 4 days until a monolayer was formed. After the cells were washed with a maintenance culture medium (MEM supplemented with 2% FBS), VZV (strain CaQu) preliminarily diluted to 20 to 30 pfu/100 μl with the maintenance culture medium was inoculated at 100 μl/well. The plate was centrifuged at 2,000 rpm at ambient temperature for 20 minutes and was then incubated in 5% CO2 at 37° C. for 3 hours, for infection with VZV. After the plate was washed three times with the maintenance culture medium, 100 μl of a test drug diluted to an appropriate concentration with the maintenance culture medium was added to each well. After the cells were cultured in 5% CO2 at 37° C. for 3 to 4 days, 10% formalin/PBS was added at 100 μl/well to fix the cells for 2 to 3 hours. After discarding the fixing solution and culture supernatant and subsequently washing the plate with water, a staining solution (0.025% Crystal Violet) was added at 50 μl/well for staining for 2 to 3 minutes, and then, the plate was washed with water and dried at 37° C. Cellular death is induced in the HEF cells infected with VZV, so that plaques of the dead cells are formed in the monolayer of the HEF cells.

HSV-1 strain WT-51 = assay: Cutaneously HSV-1-infected hairless mice model; format: in vivo, hairless mice [HR-1]; conditions: oral, methyl cellulose suspension, 10 mg/kg twice daily for 5 days; from AUC of mean composite disease score over 17 days
Experimental: Female hairless mice [HR-1, 7 weeks of age] were infected with a virus suspension containing HSV-1 strain WT-51 (1.5×10^4 PFU/15 μl) on the lateral side of the body, which had scratched with a needle, while anesthetized with diethyl ether, as previously described by H. Machida et al. [Antiviral Res., 1992, 17, 133-143]. Tested compounds were administered orally as a methyl cellulose suspension, except for compounds marked with asterisk which were dissolved in 20% Cremophor EL and 20% polyethylene glycol, starting at 3 hours after the infection, and then at a dose of 10 mg/kg twice daily for a period of 5 days. Hairless mice were inspected daily and disease severity was determined using the following criteria: • Score 0: no signs of infection. • Score 1: localized, barely perceptible small vesicles. • Score 2: slight vesicle spread. • Score 3: large patches of vesicles formed. • Score 4: zosteriform vesicles. • Score 5: large patches of ulcers formed. • Score 6: zosteriform with severe large ulcers. • Score 7: hind limb paralysis or death.
The zosteriform skin lesion and neurological scores for each animal were combined to produce a composite score. The mean composite score was used to represent the disease in each study group. The disease course was measured for 17 days and the extent of the disease was represented by the area under the curve (AUC) of the mean daily composite disease score each day after viral inoculation. The inhibitory activities of tested compounds were calculated using the AUCs.

[1] = Human alphaherpesvirus 1, MRC5, 120 h
[2] = Human alphaherpesvirus 3, read-out: EC50 value (concentration to inhibit 50% of the plaques), plaque count after 3 to 4 days

Row | SMILES | EC50 (VZV (strain CaQu); [2]) [nM] | EC50 (HSV-1 (strain KOS); [1]) [nM] | Inhibitory activity (%) (HSV-1 strain WT-51) | EC50 (HSV-1 (strain KOS)) [nM] | EC50 (VZV (strain CaQu); read-out: EC50 value (concentration to inhibit 50% of the plaques), plaque count after 3 to 4 days) [nM]
1 | Cc1ccc(N(CC(=O)Nc2ccc(-c3cocn3)cc2)C(=O)C2CCS(=O)(=O)CC2)cc1 [Example 2, N-(4-methylphenyl)-N-(2-{[4-(1,3-oxazol-4-yl)phenyl]amino}-2-oxoethyl)tetrahydro-2H-thiopyran-4-carboxamide 1,1-dioxide] |  |  | 85 |  | 
2 | Nc1nc2c(ncn2COCCO)c(=O)[nH]1 [acyclovir, reference compound] | 3400 | 480 |  |  | 
3 | Cc1cccc(C)c1N(CC(=O)Nc1ccc(-c2ncon2)cc1)C(=O)C1CCS(=O)(=O)CC1 [Example 27, N-(2,6-dimethylphenyl)-N-(2-{[4-(1,2,4-oxadiazol-3-yl)phenyl]amino}-2-oxoethyl)tetrahydro-2H-thiopyran-4-carboxamide 1,1-dioxide] | 100 | 60 | 86 |  | 
4 | Cc1cccc(N(CC(=O)Nc2ccc(-c3ncon3)cc2)C(=O)C2CCS(=O)(=O)CC2)c1C [Example 24, N-(2,3-dimethylphenyl)-N-(2-{[4-(1,2,4-oxadiazol-3-yl)phenyl]amino}-2-oxoethyl)tetrahydro-2H-thiopyran-4-carboxamide 1,1-dioxide] |  |  | 69 |  | 
5 | O=C(CN(C(=O)C1CCS(=O)(=O)CC1)c1ccc2c(c1)CCC2)Nc1ccc(-c2cocn2)cc1 [Example 11] |  |  | 92 | 40 | 60

More lines, main results first:

Row | EC50 (VZV (strain CaQu); [2]) [nM] | SMILES | EC50 (HSV-1 (strain KOS); [1]) [nM] | Inhibitory activity (%) (HSV-1 strain WT-51) | EC50 (HSV-1 (strain KOS)) [nM] | EC50 (VZV (strain CaQu); read-out: EC50 value (concentration to inhibit 50% of the plaques), plaque count after 3 to 4 days) [nM]
6 | 82 | Cc1ccc(N(CC(=O)Nc2ccc(-c3ncon3)cc2)C(=O)C2CCS(=O)(=O)CC2)c(C)c1F [Example 39, N-(3-fluoro-2,4-dimethylphenyl)-N-(2-{[4-(1,2,4-oxadiazol-3-yl)phenyl]amino}-2-oxoethyl)tetrahydro-2H-thiopyran-4-carboxamide 1,1-dioxide] | 29 |  |  | 
7 | 95 | Cc1cc(N(CC(=O)Nc2ccc(-c3ncon3)cc2)C(=O)C2CCS(=O)(=O)CC2)ccc1Cl [Example 37, N-(4-chloro-3-methylphenyl)-N-(2-{[4-(1,2,4-oxadiazol-3-yl)phenyl]amino}-2-oxoethyl)tetrahydro-2H-thiopyran-4-carboxamide 1,1-dioxide] | 26 |  |  | 
8 | 75 | Cc1cccc(C)c1N(CC(=O)Nc1ccc(-c2cocn2)cc1)C(=O)C1CCS(=O)(=O)CC1 [Example 1, N-(2,6-dimethylphenyl)-N-(2-{[4-(1,3-oxazol-4-yl)phenyl]amino}-2-oxoethyl)tetrahydro-2H-thiopyran-4-carboxamide 1,1-dioxide] | 75 |  |  | 
9 | 33 | Cc1cc(N(CC(=O)Nc2ccc(-c3cocn3)cc2)C(=O)C2CCS(=O)(=O)CC2)ccc1Cl [Example 13, N-(4-chloro-3-methylphenyl)-N-(2-{[4-(1,3-oxazol-4-yl)phenyl]amino}-2-oxoethyl)tetrahydro-2H-thiopyran-4-carboxamide 1,1-dioxide] | 6 |  |  | 
